# Data: patent publication US20210206875A1, “ERBB-2 TARGETING AGENT AND A BISPECIFIC ANTIBODY WITH ANTIGEN-BINDING SITES THAT BIND AN EPITOPE ON AN EXTRACELLULAR PART OF ERB-2 AND ERBB-3, FOR TREATMENT OF AN INDIVIDUAL WITH AN ERBB-2, ERBB-2/ERBB-3 POSITIVE TUMOUR” (Merus N.V., priority 2017, published 2021)
# Where “and” joins values, the source holds several entries; their conditions need not be identical. Equal values may be shown once.
# Tests used:
# [1] = tested on: HER2 overexpressing cells (SK-BR-3, BT-474, N87); experiment: Drug combinations with PB4188 in vitro (isobolograms); type: cell-based, human; settings: in the presence of HRG, matrigel or HRG stress concentrations
# Experimental: Moreover, combination with chemotherapeutic drugs and cyclin inhibitors were tested. Combinations were tested on HER2 overexpressing cells growing in the presence of HRG in matrigel (SK-BR-3 and BT-474) or in the presence of HRG stress concentrations (N87 and SK-BR-3 as described in proliferation assays). The inhibitory effect of drug combinations was tested by imaging or by measuring proliferation using Alamar Blue as described herein before. […] The extent of growth inhibition obtained with each combination was calculated. […] The inhibition values of the combination experiments were used by CHALICE™ Analyzer software to generate the isobolograms.
# [2] = tested on: intracranial ST1360B PDX tumors; experiment: Intracranial ST1360B PDX tumor model; type: in vivo, mouse
# Experimental: The viability of total cells was greater than 80%. […] The cells were kept on ice until inoculation.
# Drugs were diluted in sterile saline before each dosing. […] The dosing volume was 5.0 mL/kg.
# The fixative: tissue ratio was at least 20:1.
# Image analysis was performed using Horos.
# [3] = compared to vehicle treated mice
compound,measurement,setting,value
Cc1nc(NC(=O)N2CCC[C@H]2C(N)=O)sc1-c1ccnc(C(C)(C)C(F)(F)F)c1 [BYL719],drug combination with PB4188 (isobologram analysis),[1],synergistic
NC1(c2ccc(-c3nc4ccn5c(=O)[nH]nc5c4cc3-c3ccccc3)cc2)CCC1 [MK-2206],drug combination with PB4188 (isobologram analysis),[1],synergistic
CO[C@H]1C[C@@H]2CC[C@@H](C)[C@@](O)(O2)C(=O)C(=O)N2CCCC[C@H]2C(=O)O[C@H]([C@H](C)C[C@@H]2CC[C@@H](OCCO)[C@H](OC)C2)CC(=O)[C@H](C)/C=C(\C)[C@@H](O)[C@@H](OC)C(=O)[C@H](C)C[C@H](C)/C=C/C=C/C=C/1C [everolimus],drug combination with PB4188 (isobologram analysis),[1],synergistic
CS(=O)(=O)CCNCc1ccc(-c2ccc3ncnc(Nc4ccc(OCc5cccc(F)c5)c(Cl)c4)c3c2)o1 [lapatinib],drug combination with PB4188 (isobologram analysis),[1],synergistic
CCOc1cc2ncc(C#N)c(Nc3ccc(OCc4ccccn4)c(Cl)c3)c2cc1NC(=O)/C=C/CN(C)C [neratinib],drug combination with PB4188 (isobologram analysis),[1],synergistic
CC(=O)O[C@H]1C(=O)[C@@]2(C)[C@H]([C@H](OC(=O)c3ccccc3)[C@]3(O)C[C@H](OC(=O)[C@H](O)[C@@H](NC(=O)c4ccccc4)c4ccccc4)C(C)=C1C3(C)C)[C@]1(OC(C)=O)CO[C@@H]1C[C@@H]2O [paclitaxel],drug combination with PB4188 (isobologram analysis),[1],synergistic
O=C(CCCCCCC(=O)Nc1ccccc1)NO [vorinostat],drug combination with PB4188 (isobologram analysis),[1],synergistic
MCLA-128: bispecific antibody MCLA-128 directed against HER2 and HER3,Brain edema score day 3,"[2]; MRI, scale 0-4 (0 no, 4 massive brain edema), individual mice, day 3 post initiation of therapy",2 (2×) and 0 (2×) and 1 (4×)
same,Brain edema score day 7,"[2]; MRI, scale 0-4, individual mice, day 7",2 (4×) and 0 (2×) and 3 and 1
same,Brain edema score day 10,"[2]; MRI, scale 0-4, individual mice, day 10",2 (4×) and 0 (2×) and 3 and 1
same,Brain edema score day 14,"[2]; MRI, scale 0-4, individual mice, day 14",1 (4×) and 0 and 3 (3×)
same,Brain edema score day 21,"[2]; MRI, scale 0-4, individual mice, day 21",2 (2×) and 1 (3×) and 3 (3×)
same,Brain edema score day 28,"[2]; MRI, scale 0-4, individual mice, day 28",3 (4×) and 4
same,Brain edema score day 35,"[2]; MRI, scale 0-4, individual mice, day 35",3
same,Brain edema score day 42,"[2]; MRI, scale 0-4, individual mice, day 42",3
same,Brain edema final score,"[2]; MRI, scale 0-4, individual mice, last MR scan",3 (4×) and 1 (3×) and 4
same,tumor growth by T2-weighted MRI,[2]; [3],tumor growth delay
same,median survival,"[2]; post therapy initiation, T-DM1 10 mg/kg qwk, MCLA-128 25 mg/kg twice wk, i.v., vehicle 13 days",29 days
"trastuzumab-emtansine [T-DM1, reference compound]",tumor growth by T2-weighted MRI,[2]; [3],Tumor growth was inhibited
same,mean tumor volume 10 days post therapy,"[2]; compared to vehicle treated mice, p<0.05",significantly smaller
